Source: patent US20260200903A1, “PHARMACEUTICAL COMPOSITION FOR AMELIORATING MALIGNANT DISEASES” (KINKI UNIVERSITY, priority 2020, published 2026)

Experiments:
Assay type in all cases: cell-based
[1] = test system: KMS-28BM cells (myeloma cell line); assay: Cell death inducing effect on KMS-28BM cells, trypan blue staining; conditions: KMS-28BM (myeloma), cell viability
Procedure: (§1) KMS-28BM cells (myeloma cell line) were cultured under 5% CO2 at 37° C. The culture medium used RPMI-1640 medium with 100 μg/mL penicillin, 100 U/mL streptomycin and fetal bovine serum. KMS-28BM cells were seeded into 96-well plates and incubated with each concentration of the compounds was added, and cell viability was determined by the trypan blue staining.
(§2) For controls, only 0.5% DMSO (diluted in PBS) used to dissolve the compounds was added. For each concentration, each bar line is indicated by an arrow with the sign “n, a, 1, 2, 3, 4, 5, 6, 7, 8, 9, 10, 11, 12” from left to right. The “1, 3, 5, 7, 9, 11” are omitted from the graph, but the sign “1” shall be indicated by an arrow between the signs “a” and “2”, the sign “3” between the signs “2” and “4”, and other odd numbers shall likewise be indicated by arrows between even numbers before and after.
(§3) The sign “n” is the norathyriol (formula (n)) administration group, the sign “a” is the mangiferin 8a (formula (a)) administration group, the sign “1” is the yk-7 (formula (1)) administration group, the sign “2” is the yk-8-1 (formula (2)) administration group, the sign “3” is the yk-8-3 (formula (3)) administration group, the sign “4” is the M7 (formula (4)) administration group, the sign “5” is the M9 (formula (5)) administration group, the sign “6” is the M11 (formula (6)) administration group, the sign “7” is the M12 (formula (7)) administration group, the sign “8” is the M14 (formula (8)) administration group, the sign “9” is the M15 (formula (9)) administration group, the sign “10” is the M16 (formula (10)) administration group, the sign “11” is the M18 (formula (11)) administration group, the sign “12” is the M19 (formula (12)) administration group, respectively. The IC50 values for each compound is also listed in the upper right corner of the figure.

[2] = test system: L363 cells (myeloma cell line); assay: Cell death inducing effect on L363 cells, trypan blue staining
Procedure: as §1, with “L363” for “KMS-28BM”
as §2, §3

[3] = biological target: T1, phospho-NIK (Homo sapiens, UniProt Q99558); assay: Immunoblotting of phospho-NIK in KMS-28BM cells; conditions: 72 h, vs control, 1 μM mangiferin 8a/M8, 1 μM norathyriol, 0.5 μM M7, 0.2 μM M9, 5 μM yk-7, 0.5 μM yk-8-3, 100 μM yk-8-1, 0.5 μM M19, M18, M11, 0.005 μM M16, M15, M14, 0.05 μM M12
T1 construct: Proteins were extracted from these cell suspensions with cell lysate and used as samples; endogenous in cells; host or cells: KMS-28BM (myeloma)
T1 sequence (Q99558 whole entry): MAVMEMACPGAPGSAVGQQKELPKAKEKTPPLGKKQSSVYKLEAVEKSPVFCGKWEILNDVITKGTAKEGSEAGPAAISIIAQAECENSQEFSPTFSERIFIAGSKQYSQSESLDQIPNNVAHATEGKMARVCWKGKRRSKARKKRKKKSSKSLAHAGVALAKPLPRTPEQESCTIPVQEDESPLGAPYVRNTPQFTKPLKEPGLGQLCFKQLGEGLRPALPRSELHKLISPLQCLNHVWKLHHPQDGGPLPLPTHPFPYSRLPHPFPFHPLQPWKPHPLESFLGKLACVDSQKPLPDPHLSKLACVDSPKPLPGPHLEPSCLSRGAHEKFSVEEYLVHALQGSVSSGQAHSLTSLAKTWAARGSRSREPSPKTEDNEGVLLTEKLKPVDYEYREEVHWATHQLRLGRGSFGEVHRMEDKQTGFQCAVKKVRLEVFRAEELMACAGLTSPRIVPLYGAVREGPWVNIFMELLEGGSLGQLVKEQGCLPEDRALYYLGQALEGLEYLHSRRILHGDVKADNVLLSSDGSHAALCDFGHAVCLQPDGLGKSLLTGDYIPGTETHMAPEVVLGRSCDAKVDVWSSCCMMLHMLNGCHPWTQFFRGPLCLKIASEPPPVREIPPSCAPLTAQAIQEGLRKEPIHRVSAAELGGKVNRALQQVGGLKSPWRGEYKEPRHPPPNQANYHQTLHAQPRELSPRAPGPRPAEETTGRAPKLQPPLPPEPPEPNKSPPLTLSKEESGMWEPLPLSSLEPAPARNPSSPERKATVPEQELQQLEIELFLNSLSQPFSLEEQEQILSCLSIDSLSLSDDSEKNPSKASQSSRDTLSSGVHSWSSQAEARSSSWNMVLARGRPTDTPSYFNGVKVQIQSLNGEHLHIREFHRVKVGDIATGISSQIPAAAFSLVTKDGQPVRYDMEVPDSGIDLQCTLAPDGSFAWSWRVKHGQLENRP
Procedure: Immunoblotting was performed on KMS-28BM cells to investigate the inhibitory effect of each compound administration on NIK inhibition and the activation of IKK, NF-κB p52, and NF-κB p65, which are downstream signals of NIK. As a result, inhibition of NIK activation, inhibition of IKK activity, and inhibition of nuclear translocation of NF-κB p52 and NF-κB p65 were observed (FIG. 15 and FIG. 16).
As a control, compounds untreated KMS-28BM cells were seeded in 150 cm^2 flasks and incubated for 72 h at 37° C. and 5% CO2. KMS-28BM cells were seeded into 150 cm^2 flasks and pre-cultured for 24 h. After incubation, KMS-28BM cells were treated with […], 1 μM norathyriol, 0.5 μM M7 (formula (4)), 1 μM M8 (mangiferin 8a: listed in duplicate), 0.2 μM M9 (formula (5)), 5 μM yk-7 (formula (1)), 0.5 μM yk-8-3 (formula (3)) and 100 μM yk-8-1 (formula (2)) at final concentrations, and incubated for 72 h at 37° C. and 5% CO2. In addition, KMS-28BM cells were also treated with 0.5 μM M19 (formula (12)), 0.5 μM M18 (formula (11)), 0.005 μM M16 (formula (10)), […] (formula (9)), 0.005 μM M14 (formula (8)), 0.05 μM M12 (formula (7)) and […] (formula (6)) at the final concentrations, and incubated for 72 h at 37° C. and 5% CO2. Proteins were extracted from these cell suspensions with cell lysate and used as samples.
The nucleus and cytoplasmic substrate were separated from the cells using the ProteoExtract (registered trademark) Subcellular Proteome Extraction Kit from Merck Ltd. to extract the cytoplasmic and nuclear fractions.
After SDS-PAGE, each sample was transferred to a PVDF membrane and examined using anti-phospho-NIK, anti-NIK, anti-phospho-IKK, anti-IKK, anti-P-actin, anti-NF-κB p52 and anti-NF-κB p65 antibody, and anti-Lamin antibody.
The antibody species is indicated in the vertical direction. Specifically, for anti-phospho-NIK antibody, “Phospho-NIK” was used, for anti-NIK antibody, “NIK” was used, for anti-phospho-IKK antibody, “Phospho-IKK” was used, for anti-IKK antibody, “IKK” was used, for anti-p-actin antibody, “p-actin” was used, for anti-NF-κB p52 antibody, “NF-κB p52 nuclear” was used, for anti-NF-κB p65 antibody, “NF-κB p65 nuclear” was used, and for anti-Lamin antibody, “Lamin” was used.

[4] = test system: CD20; assay: CD20 expression in L363 cells, flow cytometry; conditions: 10 days, concentration lower than the IC50 (0.005-50 μM), compared to the positive control
Procedure: As a control, compounds untreated L363 cells were seeded in 75 cm^2 flasks and incubated for 10 days at 37° C. and 5% CO2. L363 cells were seeded into 75 cm^2 flasks and pre-cultured for 4 h. After incubation, L363 cells were treated with 0.1 μM M7, 0.05 μM M9, 0.1 μM yk-7, 0.1 μM yk-8-3, 50 μM yk-8-1, 0.1 μM M11, 0.01 μM M12, 0.005 μM M14, 0.005 μM M15, 0.005 μM M16, 1 μM M18, and 1 μM M19 at final concentrations, and incubated for 10 days at 37° C. and 5% CO2. This added amount is a concentration lower than the IC50 of the above compounds for L363 cells. After 10 days of incubation, cells were stained with anti-CD20 antibody, a B cell marker, and CD20 expression was measured using BD LSRFortessa. CCRF-SB cells were used as CD20-positive controls.
Results are shown in FIG. 29, FIG. 30, FIG. 31, and FIG. 32. The horizontal axis represents the expression level of CD20 and the vertical axis represents the number of cells.

[5] = Homo sapiens, L-363, cell viability

Row | Compound | IC50 [1] [nM] | IC50 ([2]; cell viability) [nM] | phospho-NIK band density (anti-phospho-NIK antibody) [3] | CD20 expression level [4] | IC50 [2, 5] [nM]
1 | 1,2′,3′,4′,6-penta-O-propionylmangiferin [Compound 8a, reference compound] | 2170 | 5600 | decrease in band density |  | 
2 | CCC(=O)OC[C@H]1O[C@@H](c2c(OC(=O)CC)cc3oc4cc(OC(=O)CC)c(OC(=O)CC)cc4c(=O)c3c2OC(=O)CC)[C@H](OC(=O)CC)[C@@H](OC(=O)CC)[C@@H]1OC(=O)CC [Compound M7, 1,3,2′,3′,4′,6,6′,7-octa-O-propionylmangiferin] | 770 |  | decrease in band density | significantly increased | 5100
3 | CCC(=O)OC[C@H]1O[C@@H](c2c(O)cc3oc4cc(O)c(O)cc4c(=O)c3c2O)[C@H](OC(=O)CC)[C@@H](OC(=O)CC)[C@@H]1OC(=O)CC [Compound M9, 2′,3′,4′,6′-tetra-O-propionylmangiferin] | 210 |  | decrease in band density | significantly increased | 620
4 | CCCC(=O)OC[C@H]1O[C@@H](c2c(OC(=O)CCC)cc3oc4cc(OC(=O)CCC)c(OC(=O)CCC)cc4c(=O)c3c2OC(=O)CCC)[C@H](OC(=O)CCC)[C@@H](OC(=O)CCC)[C@@H]1OC(=O)CCC [Compound M11, 1,3,2′,3′,4′,6,6′,7-octa-O-butyrylmangiferin] | 1910 | 970 | decrease in band density | significantly increased | 
5 | CCCC(=O)OC[C@H]1O[C@@H](c2c(O)cc3oc4cc(O)c(O)cc4c(=O)c3c2OC(=O)CCC)[C@H](OC(=O)CCC)[C@@H](OC(=O)CCC)[C@@H]1OC(=O)CCC [Compound M12, 1,2′,3′,4′,6-penta-O-butyrylmangiferin] | 210 |  | decrease in band density | significantly increased | 89
6 | CCCC(=O)OC[C@H]1O[C@@H](c2c(O)cc3oc4cc(O)c(O)cc4c(=O)c3c2O)[C@H](OC(=O)CCC)[C@@H](OC(=O)CCC)[C@@H]1OC(=O)CCC [Compound M14, 2′,3′,4′,6′-tetra-O-butyrylmangiferin] | 80 |  | decrease in band density | significantly increased | 29
7 | CC(C)(C)C(=O)OC[C@H]1O[C@@H](c2c(O)cc3oc4cc(O)c(O)cc4c(=O)c3c2O)[C@H](OC(=O)C(C)(C)C)[C@@H](OC(=O)C(C)(C)C)[C@@H]1OC(=O)C(C)(C)C [Compound M15, 2′,3′,4′,6′-tetra-O-pivaloylmangiferin] | 170 |  | decrease in band density | significantly increased | 91
8 | CCCCO[C@@H]1[C@@H](OCCCC)[C@H](c2c(O)cc3oc4cc(O)c(O)cc4c(=O)c3c2O)O[C@H](COC(=O)CCC)[C@H]1OC(=O)CCC [Compound M16, 2′,3′-di-O-butyl-4′,6′-di-O-butyrylmangiferin] | 70 |  | decrease in band density | significantly increased | 21
9 | O=c1c2cc(O)c(O)cc2oc2cc(O)cc(OCCO)c12 [Compound M18, 3,6,7-trihydroxy-1-(2-hydroxyethoxy)-9H-xanthen-9-one] | 890 |  | decrease in band density | significantly increased | 4700
10 | C=CCOc1cc(O)cc2oc3cc(O)c(O)cc3c(=O)c12 [Compound M19, 1-allyloxy-3,6,7-trihydroxy-9H-xanthen-9-one] | 2100 |  | decrease in band density | significantly increased | 7200
11 | O=c1c2cc(O)c(O)cc2oc2cc(O)cc(O)c12 [norathyriol, reference compound] | 1500 |  | decrease in band density |  | 5800
12 | CCCCC(=O)OC[C@H]1O[C@@H](c2c(O)cc3oc4cc(O)c(O)cc4c(=O)c3c2O)[C@H](OC(=O)CCCC)[C@@H](OC(=O)CCCC)[C@@H]1OC(=O)CCCC [yk-7, 2′,3′,4′,6′-tetra-O-valerylmangiferin] | 5300 |  | decrease in band density | significantly increased | 5700
13 | CCCCC(=O)OC[C@H]1O[C@@H](c2c(OC(=O)CCCC)cc3oc4cc(OC(=O)CCCC)c(OC(=O)CCCC)cc4c(=O)c3c2OC(=O)CCCC)[C@H](OC(=O)CCCC)[C@@H](OC(=O)CCCC)[C@@H]1OC(=O)CCCC [yk-8-1, 1,3,2′,3′,4′,6,6′,7-octa-O-valerylmangiferin] | > 100000 | > 100000 | decrease in band density | significantly increased | 
14 | CCCCC(=O)OC[C@H]1O[C@@H](c2c(O)cc3oc4cc(O)c(O)cc4c(=O)c3c2OC(=O)CCCC)[C@H](OC(=O)CCCC)[C@@H](OC(=O)CCCC)[C@@H]1OC(=O)CCCC [yk-8-3, 1,2′,3′,4′,6-penta-O-valerylmangiferin] | 570 |  | decrease in band density | significantly increased | 1400
